One data set deals with T1, hCA II (Homo sapiens, UniProt P00918).
T1 construct: made in house
The data set can be described thus: Stopped-flow CO2 hydrase assay, hCA II. In kind it is biochemical. As to conditions: for Ki: stopped flow, mean from 3 assays. As for the experimental part:
(§1) An SX.18MV-R Applied Photophysics (Oxford, UK) stopped-flow instrument was used to assay the catalytic/inhibition of various CA isozymes. […] Saturated CO2 solutions in water at 25 °C were used as a substrate. Stock solutions of inhibitors were prepared at a concentration of 10 μM (in DMSO-water 1:1, v/v) and dilutions up to 0.01 nM done with the assay buffer mentioned above. […] Inhibitor and enzyme solutions were preincubated together for 10 min at room temperature prior to the assay, in order to allow for the formation of the E–I complex. […] The inhibition constants were obtained by non-linear least-squares methods using the Cheng–Prusoff equation, as reported earlier, and represent the mean from at least three different determinations. All CA isozymes used here were recombinant proteins obtained as reported earlier by our group.

The next data set addresses T2, P-gp (Homo sapiens, UniProt P08183).
T2 construct: doxorubicin resistant K562/DOX cell line overexpresses almost exclusively the transporter membrane protein P-gp; endogenous in cells; host or cells: K562/DOX (doxorubicin-selected human erythroleukemia cells)
The data set can be described thus: Rhodamine-123 uptake test on K562/DOX cells (flow cytometry). In kind it is cell-based. On the procedure: The results were expressed as the FR (fluorescence ratio), which is the ratio between the average fluorescence intensity of rhodamine in the presence and in the absence of modulators. Value 1 was attributed to the average fluorescence intensity of the samples exposed only to rhodamine.
An aliquot of cells (control) was incubated with the fluorochrome in the absence of inhibitors.
At the end of the uptake, cells were sedimented, washed twice in ice-cold PBS, placed in PBS on ice, and kept in the dark until flow cytometric analysis.
The histograms were generated by program GraphPad Prism 5 (GraphPad Prism software, Inc., San Diego, CA, USA); the data were obtained from the ratio between the average fluorescence intensity of the samples preincubated with the compounds under study and subsequently exposed to rhodamine, and the fluorescence of the sample exposed only to the rhodamine.
A general note: Flow cytometry measures light scatter and fluorescence of single cells or particles in a stream.

The target of another data set is T3, hCA I (Homo sapiens, UniProt P00915).
T3 construct: made in house
As to the kind of experiment: Stopped-flow CO2 hydrase assay, hCA I. In kind it is biochemical. As to conditions: mean from 3 assays. On the procedure: as §1

In the next data set the target is T4, hCA XII (Homo sapiens, UniProt O43570).
T4 construct: made in house
The data set can be described thus: Stopped-flow CO2 hydrase assay, hCA XII. In kind it is biochemical. The settings on record: for Ki: stopped flow, mean from 3 assays. As for the experimental part: as §1

The next data set concerns the target T5, hCA IX (Homo sapiens, UniProt Q16790).
T5 construct: made in house
As to the kind of experiment: Stopped-flow CO2 hydrase assay, hCA IX. In kind it is biochemical. As to conditions: stopped flow, mean from 3 assays. As for the experimental part: as §1

The term Ki denotes a measure of affinity in units of concentration, obtained from inhibition or displacement. Lower therefore signals a stronger hold on the target.

Structures are written as SMILES.

T4 sequence (O43570 25-354): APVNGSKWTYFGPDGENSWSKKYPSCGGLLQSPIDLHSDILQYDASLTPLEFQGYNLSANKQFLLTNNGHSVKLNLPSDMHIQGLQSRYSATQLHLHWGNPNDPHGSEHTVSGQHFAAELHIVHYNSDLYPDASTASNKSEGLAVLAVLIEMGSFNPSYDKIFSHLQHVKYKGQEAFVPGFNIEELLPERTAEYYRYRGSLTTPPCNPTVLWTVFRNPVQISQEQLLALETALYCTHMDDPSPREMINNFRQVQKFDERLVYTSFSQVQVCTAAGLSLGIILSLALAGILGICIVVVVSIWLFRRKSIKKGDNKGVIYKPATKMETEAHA
T3 sequence (P00915 whole entry): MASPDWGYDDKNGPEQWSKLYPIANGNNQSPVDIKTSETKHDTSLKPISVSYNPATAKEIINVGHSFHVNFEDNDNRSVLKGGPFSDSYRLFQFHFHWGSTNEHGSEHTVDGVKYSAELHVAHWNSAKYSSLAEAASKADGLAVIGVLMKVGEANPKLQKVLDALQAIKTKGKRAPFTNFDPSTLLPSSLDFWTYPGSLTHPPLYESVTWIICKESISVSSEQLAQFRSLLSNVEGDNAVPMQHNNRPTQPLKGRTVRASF
T2 sequence (P08183 whole entry): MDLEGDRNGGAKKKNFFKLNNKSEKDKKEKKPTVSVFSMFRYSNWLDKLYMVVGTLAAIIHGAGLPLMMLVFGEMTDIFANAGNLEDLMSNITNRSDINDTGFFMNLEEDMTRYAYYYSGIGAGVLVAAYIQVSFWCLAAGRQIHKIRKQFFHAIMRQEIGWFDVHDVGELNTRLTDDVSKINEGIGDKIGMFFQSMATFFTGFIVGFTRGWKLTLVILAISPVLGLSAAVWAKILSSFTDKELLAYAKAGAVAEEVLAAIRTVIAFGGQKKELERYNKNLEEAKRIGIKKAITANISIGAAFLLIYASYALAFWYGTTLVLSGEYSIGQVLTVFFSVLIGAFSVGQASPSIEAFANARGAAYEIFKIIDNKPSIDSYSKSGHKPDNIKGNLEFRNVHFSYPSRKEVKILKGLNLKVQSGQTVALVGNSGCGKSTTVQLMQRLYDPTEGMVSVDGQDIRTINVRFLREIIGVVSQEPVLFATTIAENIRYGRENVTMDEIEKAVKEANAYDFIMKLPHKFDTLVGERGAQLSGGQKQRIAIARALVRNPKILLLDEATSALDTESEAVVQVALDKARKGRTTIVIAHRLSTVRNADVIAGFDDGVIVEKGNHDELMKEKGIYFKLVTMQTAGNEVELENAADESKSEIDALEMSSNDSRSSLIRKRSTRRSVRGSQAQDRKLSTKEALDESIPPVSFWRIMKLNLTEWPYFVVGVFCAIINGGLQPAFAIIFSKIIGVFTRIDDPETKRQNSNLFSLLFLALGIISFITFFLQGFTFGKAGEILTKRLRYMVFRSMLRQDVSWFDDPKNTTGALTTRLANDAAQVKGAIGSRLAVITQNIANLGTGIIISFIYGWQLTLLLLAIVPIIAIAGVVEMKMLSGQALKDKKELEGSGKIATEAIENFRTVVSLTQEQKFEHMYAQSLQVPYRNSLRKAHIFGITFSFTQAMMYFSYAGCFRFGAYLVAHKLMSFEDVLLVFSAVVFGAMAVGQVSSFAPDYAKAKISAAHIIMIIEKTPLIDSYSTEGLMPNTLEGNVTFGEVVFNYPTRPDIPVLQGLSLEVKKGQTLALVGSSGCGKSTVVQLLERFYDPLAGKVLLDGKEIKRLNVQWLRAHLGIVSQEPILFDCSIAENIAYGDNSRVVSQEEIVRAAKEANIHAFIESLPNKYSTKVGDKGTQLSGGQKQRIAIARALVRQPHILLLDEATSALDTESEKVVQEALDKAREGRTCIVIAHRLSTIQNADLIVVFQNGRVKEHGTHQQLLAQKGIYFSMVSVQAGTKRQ

Regarding `COc1cc(/C=C/C(=O)OCCCN(C)CCCOC(=O)COc2ccc3ccc(=O)oc3c2)cc(OC)c1OC` [Compound 1, (E)-3-(methyl(3-(2-((2-oxo-2H-chromen-7-yl)oxy)acetoxy)propyl)amino)propyl 3-(3,4,5-trimethoxyphenyl)acrylate], the Ki on hCA II was greater than 10 µM; at hCA I, greater than 10 µM; on hCA XII, 0.0093 µM; on hCA IX, 0.142 µM. Moreover, the “FR (fluorescence ratio, Rhd 123 uptake with/without modulator)” value at P-gp (compound 3 µM) is recorded as 1.44; on P-gp (compound 30 µM), 4.76.
Turning to `COc1cc(/C=C/C(=O)OCCCCCN(C)CCCOC(=O)COc2ccc3ccc(=O)oc3c2)cc(OC)c1OC` [Compound 3, (E)-5-(methyl(3-(2-((2-oxo-2H-chromen-7-yl)oxy)acetoxy)propyl)amino)pentyl 3-(3,4,5-trimethoxyphenyl)acrylate], the Ki on hCA II is greater than 10 µM; on hCA I, greater than 10 µM; on hCA XII, 0.0488 µM; at hCA IX, 0.0546 µM. Further, the figures for the “FR (fluorescence ratio, Rhd 123 uptake with/without modulator)” value at P-gp (compound 3 µM) and at P-gp (compound 30 µM) were 1.00 and 2.58, respectively.
As for `COc1cc(/C=C/C(=O)OCCCCCN(C)CCCCCOC(=O)COc2ccc3ccc(=O)oc3c2)cc(OC)c1OC` [Compound 4, (E)-5-(methyl(5-(2-((2-oxo-2H-chromen-7-yl)oxy)acetoxy)pentyl)amino)pentyl 3-(3,4,5-trimethoxyphenyl)acrylate], the Ki at hCA II is greater than 10 µM; at hCA I, greater than 10 µM; on hCA XII, 0.0189 µM; on hCA IX, 0.0266 µM. Moreover, the figures for the “FR (fluorescence ratio, Rhd 123 uptake with/without modulator)” value on P-gp (compound 3 µM) and at P-gp (compound 30 µM) were 1.99 and 5.45, respectively.
Take `COc1cc(/C=C/C(=O)OCCCCCCN(C)CCCCOC(=O)COc2ccc3ccc(=O)oc3c2)cc(OC)c1OC` [Compound 6, (E)-6-(methyl(4-(2-((2-oxo-2H-chromen-7-yl)oxy)acetoxy)butyl)amino)hexyl 3-(3,4,5-trimethoxyphenyl)acrylate]: the Ki was greater than 10 µM at hCA II, greater than 10 µM on hCA I, 0.0364 µM at hCA XII and 0.0402 µM at hCA IX. For the same compound, the “FR (fluorescence ratio, Rhd 123 uptake with/without modulator)” value on P-gp (compound 3 µM) is 1.39; on P-gp (compound 30 µM) it was 1.98.
Turning to `COc1cc(C(=O)OCCCN(C)CCCCCOC(=O)COc2ccc3ccc(=O)oc3c2)cc(OC)c1OC` [Compound 9, 3-(methyl(5-(2-((2-oxo-2H-chromen-7-yl)oxy)acetoxy)pentyl)amino)propyl 3,4,5-trimethoxy benzoate], the Ki is greater than 10 µM at hCA II, greater than 10 µM at hCA I, 0.0092 µM on hCA XII and 0.133 µM at hCA IX. For the same compound, the entries for the “FR (fluorescence ratio, Rhd 123 uptake with/without modulator)” value on P-gp (compound 3 µM) and on P-gp (compound 30 µM) were 1.00 and 3.95, respectively.
For `COc1cc(C(=O)OCCCCCCN(C)CCCOC(=O)COc2ccc3ccc(=O)oc3c2)cc(OC)c1OC` [Compound 10, 6-(methyl(3-(2-((2-oxo-2H-chromen-7-yl)oxy)acetoxy)propyl)amino)hexyl 3,4,5-trimethoxy benzoate], the Ki at hCA II was greater than 10 µM; on hCA I, greater than 10 µM; at hCA XII it was 0.0089 µM; on hCA IX, 0.103 µM. In addition, the results for the “FR (fluorescence ratio, Rhd 123 uptake with/without modulator)” value on P-gp (compound 3 µM) and at P-gp (compound 30 µM) were 1.16 and 2.18, respectively.
In the case of `COc1cc(C(=O)OCCCCCCCN(C)CCOC(=O)COc2ccc3ccc(=O)oc3c2)cc(OC)c1OC` [Compound 11, 7-(methyl(2-(2-((2-oxo-2H-chromen-7-yl)oxy)acetoxy)ethyl)amino)heptyl 3,4,5-trimethoxy benzoate], the Ki on hCA II was greater than 10 µM; at hCA I, greater than 10 µM; on hCA XII, 0.0083 µM; on hCA IX it was 0.0971 µM. Moreover, the entries for the “FR (fluorescence ratio, Rhd 123 uptake with/without modulator)” value on P-gp (compound 3 µM) and on P-gp (compound 30 µM) were 1.11 and 1.58, respectively.
Regarding `CN(CCCCCOC(=O)COc1ccc2ccc(=O)oc2c1)CCCOC(=O)c1c2ccccc2cc2ccccc12` [Compound 12, 3-(methyl(5-(2-((2-oxo-2H-chromen-7-yl)oxy)acetoxy)pentyl)amino)propyl anthracene-9-carboxylate], the Ki at hCA II is greater than 10 µM; at hCA I, greater than 10 µM; at hCA XII, 0.0457 µM; at hCA IX it was 0.151 µM. Also, the “FR (fluorescence ratio, Rhd 123 uptake with/without modulator)” value is 1.00 at P-gp (compound 3 µM) and 2.53 at P-gp (compound 30 µM).
With `CN(CCCCCCOC(=O)c1c2ccccc2cc2ccccc12)CCCOC(=O)COc1ccc2ccc(=O)oc2c1` [Compound 13, 6-(methyl(3-(2-((2-oxo-2H-chromen-7-yl)oxy)acetoxy)propyl)amino)hexyl anthracene-9-carboxylate], the Ki at hCA II was greater than 10 µM; on hCA I, greater than 10 µM; on hCA XII, 0.0091 µM; on hCA IX it was 0.0827 µM. Besides, the entries for the “FR (fluorescence ratio, Rhd 123 uptake with/without modulator)” value on P-gp (compound 3 µM) and at P-gp (compound 30 µM) were 1.43 and 2.45, respectively. For the same compound, on hCA XII (ratio of Ki values), the “preference for hCA XII with respect to hCA IX” value is “nine”.
For `CN(CCCCCCCOC(=O)c1c2ccccc2cc2ccccc12)CCOC(=O)COc1ccc2ccc(=O)oc2c1` [Compound 14, 7-(methyl(2-(2-((2-oxo-2H-chromen-7-yl)oxy)acetoxy)ethyl)amino)heptyl anthracene-9-carboxylate], the Ki at hCA II was greater than 10 µM; at hCA I, greater than 10 µM; at hCA XII it was 0.0429 µM; at hCA IX, 0.126 µM. For the same compound, the “FR (fluorescence ratio, Rhd 123 uptake with/without modulator)” value at P-gp (compound 3 µM) is given as 1.25; at P-gp (compound 30 µM) it was 4.22.
As to `COc1cc(/C=C/C(=O)OCCCN(C)CCCOC(=O)c2ccc(S(N)(=O)=O)cc2)cc(OC)c1OC` [Compound 15, (E)-3-(methyl(3-((3-(3,4,5-trimethoxyphenyl)acryloyl)oxy)propyl)amino)propyl 4-sulfamoyl benzoate], the Ki at hCA II is 0.152 µM; at hCA I it was 0.0551 µM; at hCA XII, 0.091 µM; at hCA IX it was 0.178 µM. Moreover, the entries for the “FR (fluorescence ratio, Rhd 123 uptake with/without modulator)” value on P-gp (compound 3 µM) and at P-gp (compound 30 µM) were 1.00 and 2.30, respectively.
As to `COc1cc(/C=C/C(=O)OCCCN(C)CCCCCOC(=O)c2ccc(S(N)(=O)=O)cc2)cc(OC)c1OC` [Compound 16, (E)-5-(methyl(3-((3-(3,4,5-trimethoxyphenyl)acryloyl)oxy)propyl)amino)pentyl 4-sulfamoyl benzoate], the inhibition constant Ki on hCA II stood at 0.555 µM; at hCA I, 0.447 µM; at hCA XII, 0.0943 µM; at hCA IX, 0.211 µM. The entries for the “FR (fluorescence ratio, Rhd 123 uptake with/without modulator)” value at P-gp (compound 3 µM) and on P-gp (compound 30 µM) were 1.08 and 1.83, respectively.
As to `COc1cc(/C=C/C(=O)OCCCCCN(C)CCCOC(=O)c2ccc(S(N)(=O)=O)cc2)cc(OC)c1OC` [Compound 17, (E)-3-(methyl(5-((3-(3,4,5-trimethoxyphenyl)acryloyl)oxy)pentyl)amino)propyl 4-sulfamoyl benzoate], the Ki amounted to 0.204 µM at hCA II, 0.0566 µM at hCA I, 0.0331 µM on hCA XII and 0.215 µM on hCA IX. Also, the figures for the “FR (fluorescence ratio, Rhd 123 uptake with/without modulator)” value on P-gp (compound 3 µM) and on P-gp (compound 30 µM) were 1.13 and 3.90, respectively.
For `COc1cc(/C=C/C(=O)OCCCCCN(C)CCCCCOC(=O)c2ccc(S(N)(=O)=O)cc2)cc(OC)c1OC` [Compound 18, (E)-5-(methyl(5-((3-(3,4,5-trimethoxyphenyl)acryloyl)oxy)pentyl)amino)pentyl 4-sulfamoyl benzoate], the Ki on hCA II was 0.425 µM; on hCA I, 0.0626 µM; on hCA XII, 0.0626 µM; at hCA IX, 0.226 µM. Besides, the “FR (fluorescence ratio, Rhd 123 uptake with/without modulator)” value at P-gp (compound 3 µM) is 1.00; at P-gp (compound 30 µM), 4.99.
As to `COc1cc(/C=C/C(=O)OCCCCCCN(C)CCCOC(=O)c2ccc(S(N)(=O)=O)cc2)cc(OC)c1OC` [Compound 19, (E)-3-(methyl(6-((3-(3,4,5-trimethoxyphenyl)acryloyl)oxy)hexyl)amino)propyl 4-sulfamoyl benzoate], the “hCA II vs. hCA XII preference” value at hCA II (ratio of Ki values) was 7 times. The Ki at hCA II was 0.0084 µM; on hCA I, 0.51 µM; on hCA XII it was 0.0586 µM; at hCA IX it was 0.0397 µM. Besides, the entries for the “FR (fluorescence ratio, Rhd 123 uptake with/without modulator)” value on P-gp (compound 3 µM) and at P-gp (compound 30 µM) were 1.06 and 3.23, respectively.

Values taken from publication PMC7181201, “Dual P-Glycoprotein and CA XII Inhibitors: A New Strategy to Reverse the P-gp Mediated Multidrug Resistance (MDR) in Cancer Cells” (Molecules, 2020).
